Where “and” joins values, the source holds several entries; their conditions need not be identical. Equal values may be shown once. Read-outs that look alike come from different tables or passages of the source. Peptide text beside a SMILES is read from it. * marks the point of attachment. Cbz = O=C(OCc1ccccc1)*; CH2F = FC*
Tests used:
[1] = test system: C2 production in SMB cells; assay: cells; assay type: cell-based, mouse; conditions: for IC50: read-out: concentration producing 50% inhibition of C2 accumulation (IC50)
[2] = test system: C1 production in SMB cells; assay type: cell-based, mouse
[3] = test system: SMB cells
[4] = test system: calpain-mediated cleavage of PrP in SMB cells; assay type: cell-based, mouse
[5] = test system: prion replication in SMB cells; conditions: mouse, in vivo
[6] = test system: PrP^Sc accumulation in ScN2a cells; conditions: cited from earlier work

Cbz-Leu-Leu-Tyr-CH2F [calpain inhibitor IV]
effect on production of C2 [1]: apparently complete elimination of C2 | IC50 [1]: 450 nM | C1 levels [2]: C1 levels declined | C1 levels higher than control treated SMB cells [2]: ~2 fold | cell toxicity / cell survival [3]: cell toxicity is not triggered

CCCC[C@@H](C=O)NC(=O)[C@H](CC(C)C)NC(=O)OCc1ccccc1 [calpeptin, Benzyloxycarbonylleucyl-norleucinal]
reduction in C2 [1]: 71±7.1% | cell toxicity / cell survival [3]: cell toxicity is not triggered

C[C@H](CCC(=O)O)C[C@H](C)C[C@H](C)C(=O)/C=C(\O)[C@H](C)C[C@H](C)C/C=C/[C@@H](C)[C@@H](O)[C@@H](C)[C@@H](O)C[C@@H]1CC[C@@](C)([C@H]2CC[C@@](C)([C@@H](C)O)O2)O1 [ionomycin]
increase in C2 levels compared to control [4]: ~7 fold

CC(C)[C@H](NC(=O)OCc1ccccc1)C(=O)N[C@H](C=O)Cc1ccccc1 [MDL28170, Carbobenzoxy-valinyl-phenylalaninal] (Cbz-Val-Phe-aldehyde)
C2 by immunoblotting [1]: undetectable | reduction in C2 [1]: 63±19.7% and 75±6.8% | IC50 ([1]; Mus musculus, SMB): ~4000 nM | C1 levels [2]: increased to levels similar to calpain inhibitor IV-treated SMB cells | prion titers in treated SMB cells [5]: reduced prion titers | cell toxicity / cell survival [3]: cell toxicity is not triggered

Z-FY(t-Bu)-DMK [cathepsin L inhibitor III]
effect on production of C2 [1]: unaffected

Z-FG-NHO-BzOME [cathepsin inhibitor III]
effect on production of C2 [1]: unaffected

CC(=O)N[C@@H](CC(C)C)C(=O)N[C@@H](CC(C)C)C(=O)N[C@H](C=O)CCCNC(=N)N [leupeptin]
PrP^Sc accumulation in ScN2a cells [6]: affected PrP^Sc accumulation

CNc1ccc2oc(C[C@H]3O[C@@]4(CC[C@H]3C)O[C@H]([C@H](C)C(=O)c3ccc[nH]3)[C@H](C)C[C@H]4C)nc2c1C(=O)O [A23187]
increase of C2 [4]: 3.5 fold

calpastatin
levels of C2 lower than control transfected cells [1]: 64±15%

— patent US20060234971A1 (priority 2005, published 2006)
